Source: ChEMBL document CHEMBL1201862, “PubChem BioAssay data set” (2004)
The source made the active and inactive calls.

Columns and labels:
[1] = HEK-293T cell viability reduction – luminescence, B-cell screen hits, cytotoxicity control for BCR NF-kB inhibitor project, dose response (AID 489021); format: functional, cell-based;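 also: HEK-293T cells carrying an NF-kB luciferase reporter; cells exposed to compound for about 14 hours before viability readout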
[2] = molecular target: T1, Short transient receptor potential channel 4 (Mus musculus, UniProt Q9QUQ5); assay: block of DAMGO-driven TRPC4 calcium entry – cell-based, HEK293 TRPC4/mu-opioid, Fluo-4 calcium, dose response (AID 434942); format: functional;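 also: potency of inhibitors blocking the TRPC4 calcium response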
T1 sequence (Q9QUQ5 whole entry): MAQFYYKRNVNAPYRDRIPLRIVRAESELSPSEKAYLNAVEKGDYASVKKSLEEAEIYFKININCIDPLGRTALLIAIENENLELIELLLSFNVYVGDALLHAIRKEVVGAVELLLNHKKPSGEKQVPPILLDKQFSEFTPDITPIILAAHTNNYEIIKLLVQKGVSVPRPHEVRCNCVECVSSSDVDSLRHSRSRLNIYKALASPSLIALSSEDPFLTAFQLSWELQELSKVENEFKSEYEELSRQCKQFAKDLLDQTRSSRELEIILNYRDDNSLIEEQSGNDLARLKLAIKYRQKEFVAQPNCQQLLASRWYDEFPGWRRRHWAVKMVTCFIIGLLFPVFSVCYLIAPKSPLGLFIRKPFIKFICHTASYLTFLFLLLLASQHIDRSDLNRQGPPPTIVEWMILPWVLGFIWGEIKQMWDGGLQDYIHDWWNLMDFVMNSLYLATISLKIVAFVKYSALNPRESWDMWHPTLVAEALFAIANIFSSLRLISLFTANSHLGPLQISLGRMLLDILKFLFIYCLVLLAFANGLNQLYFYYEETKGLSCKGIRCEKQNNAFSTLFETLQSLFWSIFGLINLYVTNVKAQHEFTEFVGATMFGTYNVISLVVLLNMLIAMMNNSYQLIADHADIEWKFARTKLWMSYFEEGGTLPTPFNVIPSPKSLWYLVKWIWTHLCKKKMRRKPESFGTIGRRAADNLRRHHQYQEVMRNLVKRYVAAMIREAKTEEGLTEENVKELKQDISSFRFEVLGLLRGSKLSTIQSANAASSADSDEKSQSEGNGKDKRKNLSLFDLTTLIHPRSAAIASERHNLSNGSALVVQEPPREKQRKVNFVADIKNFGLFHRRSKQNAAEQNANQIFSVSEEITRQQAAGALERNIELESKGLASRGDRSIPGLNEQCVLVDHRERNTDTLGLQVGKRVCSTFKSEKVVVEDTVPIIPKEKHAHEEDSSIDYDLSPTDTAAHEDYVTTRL

HEK293 [3] = assay: cells; format: functional, cell-based; conditions: Homo sapiens
HEK293 [4] = assay: NOD2 signaling inhibitors in MDP-stimulated cells, cell-based, uHTS, luminescence (AID 2001); format: functional; conditions: Homo sapiens
HEK293 [5] = assay: inhibition of NOD1-driven NF-kB reporter – cell-based, luminescence, uHTS, primary screen (AID 1578); format: functional; conditions: Homo sapiens
HEK293 [6] = assay: cells; format: functional, cell-based; conditions: Homo sapiens; remark: listed apart in the source
[7] = molecular target: Eukaryotic translation initiation factor 4E (Mus musculus, UniProt P63073); assay: blockers of eIF4G binding by eIF4E – biochemical, TR-FRET, dose response (AID 855); format: functional;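 also: potency for disrupting eIF4E binding to eIF4GI seen as loss of FRET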
Sequence of Eukaryotic translation initiation factor 4E (P63073 whole entry): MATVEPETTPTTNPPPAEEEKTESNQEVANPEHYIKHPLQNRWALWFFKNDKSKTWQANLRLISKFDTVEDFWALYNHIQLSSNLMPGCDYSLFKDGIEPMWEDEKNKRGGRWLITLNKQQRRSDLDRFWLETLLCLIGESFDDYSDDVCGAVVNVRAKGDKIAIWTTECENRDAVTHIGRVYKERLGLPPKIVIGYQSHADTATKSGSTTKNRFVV

Genome polyprotein = Genome polyprotein (dengue virus type 2, UniProt P29990); assay: flavivirus cap methylation enzyme inhibition – biochemical, confirmation dose response, primary screen (AID 588689); format: functional
Sequence of Genome polyprotein (P29990 2492-3391 limits assumed): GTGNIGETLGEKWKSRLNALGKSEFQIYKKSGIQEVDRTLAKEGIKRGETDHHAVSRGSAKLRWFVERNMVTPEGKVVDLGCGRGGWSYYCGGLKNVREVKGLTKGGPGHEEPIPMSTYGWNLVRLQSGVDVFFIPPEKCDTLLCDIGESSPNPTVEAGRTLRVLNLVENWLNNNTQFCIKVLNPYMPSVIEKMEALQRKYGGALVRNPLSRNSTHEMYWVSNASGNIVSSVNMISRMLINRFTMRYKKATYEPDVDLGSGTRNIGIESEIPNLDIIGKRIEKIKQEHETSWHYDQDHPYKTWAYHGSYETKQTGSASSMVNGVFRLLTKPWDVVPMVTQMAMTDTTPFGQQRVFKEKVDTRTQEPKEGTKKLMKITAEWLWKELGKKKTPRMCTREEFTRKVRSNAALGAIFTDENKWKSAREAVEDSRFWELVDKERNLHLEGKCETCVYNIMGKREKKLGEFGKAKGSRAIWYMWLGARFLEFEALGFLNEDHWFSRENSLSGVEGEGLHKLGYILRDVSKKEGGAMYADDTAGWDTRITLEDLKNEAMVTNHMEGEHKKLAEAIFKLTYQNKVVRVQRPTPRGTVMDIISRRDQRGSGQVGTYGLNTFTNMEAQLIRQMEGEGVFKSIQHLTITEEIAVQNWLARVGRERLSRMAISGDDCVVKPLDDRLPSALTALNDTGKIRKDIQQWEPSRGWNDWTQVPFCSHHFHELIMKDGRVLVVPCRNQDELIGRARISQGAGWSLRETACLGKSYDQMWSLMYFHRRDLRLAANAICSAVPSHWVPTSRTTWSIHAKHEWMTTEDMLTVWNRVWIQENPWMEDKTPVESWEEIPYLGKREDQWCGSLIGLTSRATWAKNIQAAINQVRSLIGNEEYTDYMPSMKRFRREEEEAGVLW

[8] = luciferase reporter signal suppression in cells – H4 neuroglioma cells, luminescence, dose response (AID 1990); format: functional, cell-based
[9] = alpha-synuclein stem-loop luciferase translation blockers – H4 neuroglioma cells, luminescence, confirmation (AID 1988); format: functional, cell-based
Paired box protein Pax-8 = Paired box protein Pax-8 (Homo sapiens, UniProt Q06710); assay: PAX8 transcriptional activity inhibition in RMG-I – RMG-I cells, luciferase, cherry-pick, dose response (AID 687027); format: functional, cell-based;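 also: luciferase reporter driven by Pax8 target thyroperoxidase promoter measured by SteadyGlo luminescence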
Sequence of Paired box protein Pax-8 (Q06710 whole entry): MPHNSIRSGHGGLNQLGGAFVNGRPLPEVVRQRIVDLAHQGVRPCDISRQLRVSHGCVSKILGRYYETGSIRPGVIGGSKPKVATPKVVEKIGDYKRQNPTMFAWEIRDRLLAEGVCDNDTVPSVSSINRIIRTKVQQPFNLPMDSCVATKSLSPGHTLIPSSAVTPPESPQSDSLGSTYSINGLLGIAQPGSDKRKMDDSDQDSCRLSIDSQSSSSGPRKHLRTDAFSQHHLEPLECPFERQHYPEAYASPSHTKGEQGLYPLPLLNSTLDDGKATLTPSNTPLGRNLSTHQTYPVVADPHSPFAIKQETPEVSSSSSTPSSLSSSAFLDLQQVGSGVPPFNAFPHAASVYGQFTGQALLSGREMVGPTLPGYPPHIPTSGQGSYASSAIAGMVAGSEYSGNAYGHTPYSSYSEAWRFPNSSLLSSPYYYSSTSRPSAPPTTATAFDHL

[10] = Luminescence Cell-Based Dose Response HTS to Identify Inhibitors of 5'UTR Stem-Loop Driven Prion Protein mRNA Translation in H4 Neuroglioblastoma Cells. [Related pubchem assays: 1827 (Project Summary), 1813 (Primary HTS)]; format: functional
[11] = viability loss in CEM21 cells – cell-based, CellTiter-Glo luminescence, cherry-picked, cytotoxicity control for viral fusion inhibitor project, dose response (AID 652042); format: functional;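 also: potency for signal decrease meaning cytotoxicity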
H4 = assay: Luminescence Cell-Based Dose Response HTS to Identify Activators of 5'UTR Stem-Loop Driven Prion Protein mRNA Translation in H4 Neuroglioblastoma Cells. [Related pubchem assays: 1829 (Project Summary), 1814 (Primary HTS)]; format: functional; conditions: Homo sapiens
[12] = Luminescence Cell-Based Dose Confirmation HTS to Identify Activators of 5'UTR Stem-Loop Driven Alpha-Synuclein mRNA Translation in H4 Neuroglioblastoma Cells. [Related pubchem assays: 1829 (Project Summary), 1814 (Primary HTS)]; format: functional
[13] = Luminescence Cell-Based Dose Response HTS to Identify Activators of Luciferase Translation or Activity in H4 […] Cells. [Related pubchem assays: 1829 (Project Summary), 1814 (Primary HTS)]; format: functional
[14] = off-target signal loss in HeLa-CEM21 co-culture – HeLa F-luc CTL cells, cherry-picked, counter-screen for HIV-1 Env fusion inhibitor project, dose response (AID 652040); format: functional, cell-based;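 also: potency for signal decrease marking cytotoxic or nonspecific inhibition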
[15] = HIV-1 AD8 envelope cell-cell fusion blockers – cherry-pick, dose response (AID 652062); format: functional, cell-based;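 also: luciferase signal from cell-cell fusion driven by HIV-1 clade B AD8 Env; potency is for inhibitors of fusion seen as a drop in luminescence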
[16] = Trypanosoma cruzi growth suppression in host cells – NIH3T3 host cells, beta-gal luminescence, confirmation (AID 2044); format: functional, cell-based;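 also: intracellular parasites grown in NIH/3T3 mouse fibroblasts as host cells; luminescent beta-galactosidase reporter signal from transgenic T. cruzi replicating inside host cells; inhibitors lower the luminescence signal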
[17] = NIH3T3 cell viability loss – ATP luminescence, mouse fibroblasts, counter-screen, dose response (AID 2010); format: functional, cell-based;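 also: cells exposed to compound for about 90 hours before reading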
[18] = molecular target: T2, DNA repair protein RAD52 homolog (Homo sapiens, UniProt P43351); format: functional, biochemical
T2 sequence (P43351 whole entry): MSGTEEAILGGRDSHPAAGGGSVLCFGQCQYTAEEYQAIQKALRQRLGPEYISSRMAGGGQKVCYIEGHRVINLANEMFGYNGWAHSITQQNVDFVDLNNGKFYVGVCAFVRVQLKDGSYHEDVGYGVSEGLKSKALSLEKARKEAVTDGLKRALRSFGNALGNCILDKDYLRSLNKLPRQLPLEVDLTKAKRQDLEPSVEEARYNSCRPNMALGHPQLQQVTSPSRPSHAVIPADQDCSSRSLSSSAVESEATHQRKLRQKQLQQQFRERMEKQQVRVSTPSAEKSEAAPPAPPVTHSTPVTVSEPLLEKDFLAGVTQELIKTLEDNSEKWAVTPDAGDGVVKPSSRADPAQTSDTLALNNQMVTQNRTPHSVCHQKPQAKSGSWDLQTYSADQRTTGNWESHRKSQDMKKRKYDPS

[19] = fluconazole-exposed Candida albicans growth modulators – fluorescence, retest, confirmation (AID 2467); format: functional, cell-based
[20] = NIH-3T3 fibroblast cytotoxicity, dose response, cytotoxicity control, cell-based, fluorescence, Alamar Blue, secondary assay (AID 2327); format: functional;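 also: NIH-3T3 mouse fibroblasts cultured with fluconazole at 8 µg/mL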
INS1 = assay: INS-1E survival protection against cytokine death – cell-based, luminescence, retest, dose response (AID 449756); format: functional; conditions: Rattus norvegicus;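 also: cell death triggered by IL-1 beta plus TNF-alpha plus IFN-gamma mixture; protective hits raise ATP signal compared with cytokine alone wells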
Nonstructural protein 1 = Nonstructural protein 1 (Influenza A virus, UniProt Q194T2); format: functional, Influenza A virus (A/California/07/2009(H1N1))
Sequence of Nonstructural protein 1 (Q194T2 whole entry): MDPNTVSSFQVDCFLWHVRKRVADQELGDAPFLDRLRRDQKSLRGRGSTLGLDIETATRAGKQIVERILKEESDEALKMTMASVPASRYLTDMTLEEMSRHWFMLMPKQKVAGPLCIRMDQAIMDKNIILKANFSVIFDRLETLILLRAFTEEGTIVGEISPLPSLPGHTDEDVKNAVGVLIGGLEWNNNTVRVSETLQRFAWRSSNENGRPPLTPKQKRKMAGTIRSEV

[21] = A549 cell cytotoxicity, dose response, cytotoxicity control, plate reader, cherry-pick, antagonist series (AID 743412); format: functional, cell-based
[22] = toxicity toward HepG2 liver cells – cell-based, plate reader, cherry-pick, antagonist series, cytotoxicity control, dose response (AID 743416); format: functional
[23] = viability loss in HEK293 cells – cell-based, plate reader, cherry-picked samples, cytotoxicity control, dose response (AID 743446); format: functional
[24] = blockade of melanocortin 4 receptor signaling – cell-based, plate reader, cherry pick, counter-screen for LGR2 antagonist project, dose response (AID 743444); format: functional;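 also: transfected HEK 293 cells stimulated with alpha-MSH peptide; potency of inhibitors of the alpha-MSH evoked signal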
[25] = Luminescence Cell-Based Dose Retest to Confirm Inhibitors of Cancer Stem Cells. [Related pubchem assays (depositor defined):AID2717, AID2721]; format: functional; conditions: Homo sapiens
[26] = blockers of bursicon-stimulated LGR2 cAMP reporter – cell-based, HEK293, CRE-luciferase reporter, cherry pick, set 2, dose response (AID 743343); format: functional;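 also: transfected cells were stimulated with diluted bursicon conditioned medium after compound addition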
HEK293 [27] = assay: EBV LMP1 TES2 canonical NF-kB signalling blockers – cell-based, HEK293, luciferase, cherry-pick, dose response (AID 588343); format: functional; conditions: Homo sapiens

CCn1c(=O)cc(OCC(=O)NCc2ccc(C)o2)c2ccccc21
IC50 [1]: > 80 µM (inactive)

O=C(C[N+]1(CC#Cc2ccccc2)CCCCC1)c1ccc(Cl)cc1
EC50 [2]: 7.5 µM (active)

Oc1cc(-c2ccccc2)nc2cc(-c3ccc(Br)cc3)nn12
IC50 (HEK293 [3]): > 20 µM (inactive)
IC50 (HEK293 [4]): 5.12 µM (inactive)
EC50 (HEK293 [5]): 10.8 µM (active)
IC50 (HEK293 [6]): 16.9 µM (active)

Cc1ccc(C)c(NC(S)=NCCN(C2CCCCC2)C2CCCC2)c1
IC50 [7]: 50 µM (inactive)

CCCCOc1ccc(Nc2cc(Cl)ccc2C(=O)O)cn1
IC50 (Genome polyprotein): 59.8 µM (active)
EC50 [2]: 10.6 µM (active)

O=C(NCCC1CCCCN1S(=O)(=O)c1ccc(Cl)cc1)C(=O)NCc1ccncc1 (centres undefined)
EC50 [8]: 15.5 µM (active)
EC50 [9]: 9.38 µM (active)
AC50 (Paired box protein Pax-8): 3.27 µM (active)
IC50 [1]: > 80 µM (inactive)
EC50 [10]: 20.8 µM (active)

Cc1nnc(SC(=O)N2c3ccccc3Sc3ccccc32)s1
AC50 [11]: 10.6 µM (active)
EC50 (H4): > 120 µM (not active)
EC50 [12]: > 120 µM (not active)
EC50 [13]: > 60 µM (not active)
AC50 [14]: 30.8 µM (active)
AC50 [15]: 3.79 µM (active)

CCOC(=O)c1c(C)n(CC(O)CN(C)C)c2cc(Br)c(OC)cc12 (centres undefined)
EC50 [16]: 0.685 µM (active)
EC50 [17]: > 60 µM (not active)
AC50 [18]: 10.1 µM (active)

Cc1cc(C)cc(NC(=N)Nc2nc(C)cc(C)n2)c1
EC50 [2]: 2.99 µM (active)

Cc1ccc(C)c(OCc2ccc(C(=O)NN)o2)c1
IC50 [1]: > 80 µM (inactive)

N#CC1=C(N)Oc2c(ccc3cccnc23)C1c1cccnc1 (centres undefined)
EC50 [19]: 1.18 µM (active)
EC50 [20]: 22.1 µM (active)
AC50 (INS1): 3.17 µM (active)
IC50 (Nonstructural protein 1): 56.6 µM (active)

O=C(CSc1[nH]cnc2nncc1-2)Nc1nc(-c2ccc(F)c(F)c2)cs1
AC50 [21]: 46.1 µM (active)
AC50 [22]: > 52 µM (inactive)
AC50 [23]: > 52 µM (inactive)

COc1cccc(/C=C/c2ccc3ccccc3n2)c1OC(C)=O
AC50 [24]: 2.59 µM (active)
AC50 [21]: 25.3 µM (active)
AC50 [25]: 6.67 µM (active)
AC50 [26]: 2.77 µM (active)
AC50 [22]: 33.3 µM (active)
AC50 (HEK293 [27]): 1.87 µM (active)
AC50 [23]: 30.1 µM (active)
